One compound from EPA's ToxValDB 9.5 (doi:10.2903/j.efsa.2006.53r) can be followed below.

One data set deals with Colinus virginianus. The following applies: for LD50: acute, oral, mortality.
A further data set deals with Tagia sp. Particulars: acute; mortality.
For the next data set, the system named is Canidae. Particulars: Dog Other, organ weight.
Another data set relates to Apis mellifera. Particulars: acute, mortality.
The next data set has as its system Aphidius rhopalosiphi. The following applies: not reported; mortality.

Values after ≈ are worked out from the molar mass of the structure shown.

`COCC(C)N(C(=O)CCl)c1c(C)csc1C` (stereo unspecified) [Dimethenamid]: the LD50 came to 1200 mg/kg in the data set with Colinus virginianus (diet); 1910 mg/kg with Colinus virginianus; 397 mg/kg with Rattus norvegicus (acute, oral, mortality); 94 µg/piece in the data set with Apis mellifera (duration: 48 hours, dermal); 1000 µg/piece in the data set on Apis mellifera (oral, unspecified). The NOAEL (commonly the highest tested level that showed no adverse finding) in the data set with Colinus virginianus (reproduction developmental) was 114 mg/kg-day; in the data set with Rattus norvegicus (reproduction developmental, growth) it was 33.3 mg/kg-day; with Rattus norvegicus (short-term, duration: 4 days, oral, gavage, organ weight), 25 mg/kg-day; with Canidae (chronic, duration: 1 years), 2 mg/kg-day; in the data set on Canidae (subchronic, duration: 90 days), 4.3 mg/kg-day. The LC50 came out at 294 mg/kg in the data set with Tagia sp.; 2.6 µg/mL (≈ 9.43 µM) with Oncorhynchus mykiss (acute, duration: 96 hours, mortality); 12 µg/mL (≈ 43.5 µM) in the data set with Daphnia magna (acute, duration: 48 hours, mortality). The NOEC with Oncorhynchus mykiss (chronic/long-term, duration: 90 days, growth) amounted to 0.12 mg/L; in the data set on Daphnia magna (chronic/long-term, duration: 21 days), 0.68 mg/L. Moreover, the LEL with Aphidius rhopalosiphi was found to be 1010 g/ha.
